From patent US7582645B2, “Pyrimidine derivatives for treatment of hyperproliferative disorders” (Bayer Pharmaceuticals Corporation, priority 2003, dated 2009)

Tested on: HCT116 cells
Assay: HCT116 cytotoxic activity assay (Alamar Blue, 72 h)
Format: cell-based
Conditions: Homo sapiens, HCT-116, 72 h compound exposure
Experimental: Representative compounds of this invention were tested for cytotoxicity using the above-described assay procedure with the following results: […]

[1] = greater than 500 nM but less than or equal to 2 μM

SMILES	IC50 (less than or equal to 500 nM) [µM]	IC50 [1] [µM]
Cc1cc(Oc2ccc(Nc3cc(-c4cccc(N)c4)nc(N)n3)cc2)ccn1 [Example 320, 6-(3-aminophenyl)-N4*-{4-[(2-methylpyridin-4-yl)oxy]phenyl} pyrimidine-2,4-diamine]	≤ 0.5	
Cc1cc(Oc2ccc(Nc3cc(-c4ccoc4)nc(N)n3)cc2)ccn1 [Example 321, 6-(3-furyl)-N4*-{4-[(2-methylpyridin-4-yl)oxy]phenyl} pyrimidine-2,4-diamine]	≤ 0.5	
Cc1cc(Oc2ccc(Nc3cc(-c4ccccc4N)nc(N)n3)cc2)ccn1 [Example 322, 6-(2-aminophenyl)-N4*-{4-[(2-methylpyridin-4-yl)oxy]phenyl} pyrimidine-2,4-diamine]		0.5 to 2
Cc1cc(Oc2ccc(Nc3cc(-c4ccc(C)c(N)c4)nc(N)n3)cc2)ccn1 [Example 323, 6-(3-amino-4-methylphenyl)-N4*-{4-[(2-methylpyridin-4-yl)oxy]phenyl} pyrimidine-2,4-diamine]	≤ 0.5	
Cc1cc(Oc2ccc(Nc3cc(-c4cccc(OC(C)C)c4)nc(N)n3)cc2)ccn1 [Example 324, 6-(3-isopropoxyphenyl)-N4*-{4-[(2-methylpyridin-4-yl)oxy]phenyl} pyrimidine-2,4-diamine]		0.5 to 2
Cc1cc(Oc2ccc(Nc3cc(-c4cccc(OC(F)(F)F)c4)nc(N)n3)cc2)ccn1 [Example 325, N4*-{4-[(2-methylpyridin-4-yl)oxy]phenyl}-6-[3-(trifluoromethoxy)phenyl]pyrimidine-2,4-diamine]		0.5 to 2
Nc1nc(Nc2ccc(Oc3ccnc(Cl)c3)cc2)cc(-c2ccc(OS(N)(=O)=O)cc2)n1 [Example 332, 4-[2-amino-6-({4-[(2-chloropyridin-4-yl)oxy]phenyl}amino)pyrimidin-4-yl]phenyl sulfamate]	≤ 0.5	
